In patent US20250339391A1, “METHODS FOR EFFECTIVE MANAGEMENT OF PAIN” (South Rampart Pharma, Inc., priority 2024, published 2025):

Tests used:
Beagle dogs = assay: Single oral dose (capsule) toxicity and pharmacokinetic study in Beagle dogs (non-GLP); assay type: in vivo
Method: 2) A Single Oral Dose Toxicity and Pharmacokinetic Study of SRP-001 in Beagle Dogs (non-GLP) SRP-001 was prepared into capsules for oral administration. Three experimentally non-naïve Beagle dogs, at least 7 months old and weighing 7.7 to 10 kg prior to treatment initiation, were administered a single dose of 300 mg/kg SRP-001 (Calvert Labs/Altasciences, Scott Township, PA USA). On the day of dosing, animals were observed prior to dose administration, approximately 1-3 h post-dose, and once on day 2. Body weights were recorded for all animals prior to dose administration for the preparation of the capsules. Blood for bioanalytical evaluation was collected at selected timepoints on day 1. Following the completion of the study, surviving animals were not euthanized. They were returned to the Calvert colony for an appropriate washout period before possible use in a subsequent study. […] Plasma samples were collected at seven different time points post-dose.

Sprague-Dawley rats = assay: CFA inflammatory pain / von Frey with electronic detection (eVF); assay type: in vivo, rat; conditions: behavioral assays
healthy volunteers = assay: Phase 1 safety and tolerability; assay type: in vivo, human
Method: A randomized, double-blind, placebo-controlled Phase 1 trial (ClinicalTrials.gov identifier: NCT05484414) was conducted to assess the safety, tolerability, food effect, pharmacokinetics (PK), and pharmacodynamics (PD) of single and multiple ascending doses of SRP-001 (Quotient Sciences, Miami FL USA; FIG. 3H and Online Methods). The trial was conducted in accordance with the International Council for Harmonisation of Technical Requirements for Pharmaceuticals for Human Use (ICH), Guideline for GCP: Consolidated Guidance (E6), attained Institutional Review Board approval, and all applicable regulatory requirements for Phase 1, First in Human clinical trials. Safety measurements and plasma samples to determine PK parameters were collected throughout the study for all subjects and reviewed by the Safety Review Committee. PK stopping criteria were established to assure that systemic exposure to SRP-001 was less than or equal to the systemic exposure achieved at the NOAEL doses in the 28-day repeat-dose toxicology studies in the rat and dog. The trial's Safety Advisory Committee has approved the publication of the Phase 1 results.
A two-part randomized, double-blind, placebo-controlled Phase 1 trial was conducted to assess the safety, tolerability, PK and PD of SRP-001 ascending doses (Quotient Sciences, Miami, FL USA). […]
Safety—Holter (continuous ECG) Monitoring: NHVs also underwent continuous ECG Holter monitoring from at least 1 h prior to dosing until 24 h post-dose, and resulting measurements were monitored consistently. […] Where any scheduled rest times were missed, where there was less than a 10-min rest period, or where the final 5 min of a rest period was interrupted (for example, by subject movement or loss of leads), a protocol deviation was recorded, and the Holter provider was informed. Loss of leads or interruption of the recording outside of the scheduled rest times was not considered a protocol deviation but was recorded in the source. […]

[1] = tested on: Salmonella typhimurium strains and Escherichia coli strain WP2 uvrA; assay: Ames reverse mutation assay; assay type: cell-based
Method: To further evaluate the potential genotoxicity of SRP-001 and determine the validity of the in vitro findings, a second in vivo assay, a GLP-compliant Comet assay, was conducted in accordance with ICH S2(R1) Guidance on Genotoxicity Testing and Data Interpretation for Pharmaceuticals Intended for Human Use. […] SRP-001 was tested to evaluate its mutagenic potential by measuring its ability to induce reverse mutations at selected loci of several strains of Salmonella typhimurium (S. typhimurium) and at the tryptophan locus of Escherichia coli (E. coli) strain WP2 uvrA in the presence and absence of an exogenous metabolic activation system (Bioreliance, Rockville, MD USA). Dimethyl sulfoxide (10% DMSO) was used as the vehicle. The dose levels tested in the preliminary toxicity assay were 6.67, 10.0, 33.3, 66.7, 100, 333, 667, 1000, 3333, and 5000 μg per plate. No precipitate was observed. […] The dose levels tested in the mutagenicity assay were 100, 333, 667, 1000, 3333, and 5000 μg per plate. […] In the preliminary toxicity assay, the doses tested ranged from 0.0405 to 405 μg/mL (1 mM), which was the limit dose for this assay (Bioreliance, Rockville, MD USA).

CCN(CC)C(=O)c1ccccc1S(=O)(=O)NCC(=O)Nc1ccc(O)cc1 [SRP-001, N,N-diethyl-2-[[2-(4-hydroxyanilino)-2-oxo-ethyl]sulfamoyl]benzamide]
tolerability (Beagle dogs; dog, in vivo, 300 mg/kg): well tolerated
bioavailability (Beagle dogs; single 300 mg/kg, capsules): poor bioavailability
locomotor activity or motor incoordination (Sprague-Dawley rats): no overt alterations
emesis (healthy volunteers; Phase 1 MAD cohort): no emesis was reported
safety assessments (vital signs, ECG, laboratory tests) (healthy volunteers; SAD and MAD cohorts): revealed no abnormalities
tolerability / serious adverse events (healthy volunteers; oral nanosuspension, SAD and MAD cohorts, 42 subjects on SRP-001): no serious adverse events (SAEs) reported
mutagenic response (reverse mutations) ([1]; 100-5000 μg per plate, with and without S9): No positive mutagenic responses were observed
precipitate and toxicity ([1]; mutagenicity assay, up to 5000 μg per plate): Neither precipitate nor toxicity was observed
dose with toxicity (reduction in the revertant count) ([1]; preliminary toxicity assay, TA1537 and WP2 uvrA, absence of S9): 5000 μg per plate
